Consider 5 compounds from publication PMC7473840, “Identification of a molecular locus for normalizing dysregulated GABA release from interneurons in the Fragile X brain” (Molecular Psychiatry, 2018).

“Also recorded” adds a separate entry of the source. Where two headings read alike, the source gives them in different places. Non-standard residues stand in square brackets, D forms with d. Residues, ends and D or L forms follow the SMILES beside them. pS = N[C@@H](COP(=O)(O)O)C(=O)O

Experiment [1] deals with T1, recombinant full-length FMRP (isoform 1) (Homo sapiens, UniProt Q06787).
T1 construct: containing cDNA for full-length human FMRP; His-SUMO (N, cleaved yes); made in house; host or cells: Escherichia coli BL21 (DE3) Codon Plus
The experiment is described as follows: In vitro intrinsic protein fluorescence binding assay. As to conditions: for change of fluorescence emission spectrum of FMRP (binding): 500–1000 μM peptide and 1 μM FMRP, 100 mM NaCl, 50 mM Na2PO4 pH 7.4, 2 mM DTT, 20 °C, excitation 287 nm; for co-operativity of binding to dimeric FMRP: fit of binding data to dimer models; for Kd: 1 μM FMRP, pH 7.4, 20 °C. The method, then: Small Ubiquitin-like Modifier (SUMO) fusion construct containing cDNA for full-length human FMRP was generated by gene synthesis (GenScript USA Inc.) and subcloned into a pET SUMO vector (Invitrogen). […] The pET SUMO–FMRP construct was transformed into Escherichia coli BL21 (DE3) Codon Plus cells and grown at 37 °C in Lennox broth medium. Protein expression was induced with 0.5 mM isopropyl-β-D-thiogalactopyranoside when optical density reached ~0.6, followed by 18 h of additional growth at 16 °C. Cells were harvested by centrifugation and pellets stored at −20 °C. In order to purify SUMO–FMRP, thawed pellets were resuspended in lysis buffer [50 mM Tris, pH 8.0, 500 mM NaCl, 20 mM imidazole, 10% glycerol, 250 mM arginine, 5 mM benzamidine, and 2 mM dithiothreitol (DTT)], supplemented with DNAse 1 and cOmplete™ Protease Inhibitor Cocktail (Sigma-Aldrich). After cell lysis and centrifugation, the filtered supernatant was loaded onto a 20 ml NiNTA column equilibrated in the same lysis buffer. The column was extensively washed with 20 column volumes (CV) of the same buffer supplemented with 100 mM imidazole. Elution of SUMO-fusion FMRP was performed using 100–500 mM imidazole gradient, and protein-containing fractions were combined and a 6× His tagged Ulp protease was added. Cleavage of the His-SUMO tag was performed overnight in a cold room (7 °C) while dialyzing in 4 L of 50 mM Tris, pH 8.0, 500 mM NaCl, 50 mM imidazole, 10% glycerol, 250 mM arginine, 5 mM benzamidine, and 2 mM DTT. Complete cleavage of the SUMO tag by Ulp was confirmed by SDS-PAGE and the protein of interest was separated from the Ulp protease and SUMO tag by passing the cleavage reaction over a second NiNTA column. Flow-through and wash fractions containing protein of interest were combined and then loaded onto a Superdex 200 gel filtration column pre-equilibrated with the same lysis buffer.
The eluted purified proteins were analyzed by both SDS-PAGE and mass spectrometry, and the combined fractions were dialyzed three times in 5 L of Fluorescence Binding Buffer (100 mM NaCl, 50 mM Na2PO4 pH 7.4, 2 mM DTT). After filtering through a 0.22 μm GV Durapore Centrifugal Filter Unit (Millipore), FMRP concentration was determined by absorbance at 280 nm using a molar extinction coefficient of 48,360 M^−1 cm^−1, and the protein was used for binding studies with Kv1.2 C-terminal peptides.
All measurements were carried out in the Fluorescence Binding Buffer at 20 °C using a PTI Quanta Master 80 Spectrofluorometer (HORIBA Scientific) by monitoring intrinsic protein fluorescence with an excitation wavelength of 287 nm. Prior to performing a binding titration for any of the peptides, a full emission spectrum (300–450 nm) of the peptide:FMRP complex was compared to that of apo-FMRP. Differences in the spectrum of the complex (500–1000 μM peptide and 1 μM FMRP) and apo-FMRP at the same concentration (i.e., fluorescence quenching, enhancement or shifts of the emission maximum) indicated binding. For each of these peptides, binding measurements were performed by adding aliquots of saturated 1 µM FMRP:peptide complex (titration solution) to 400 μL of 1 μM apo-FMRP solution as described by Wells and Di Cera. Briefly, at each titration step, a volume vD was removed from the cuvette containing the apo-FMRP and replaced by an equal volume of the titration solution (1 μM FMRP: 200–500 μM peptide complex). As a result, the concentration of FMRP (1 μM) and total volume of solution in the cuvette, V = 400 μL, remained constant while the concentration of the peptide at the ith titration step, [peptide]i, was increased, and given by
[peptide]i = [peptide]0^i.D^i+[peptide]∞^i.(1 − D^i),
where, [peptide]0 was the initial peptide concentration in the cuvette, [peptide]∞ was the peptide concentration in the titration solution, and D was the dilution factor, D = (V − vD)/V. […]

Experiment [2] relates to PNs, WT and Fmr1-KO cerebellar slices. Format: cell-based, mouse.
The test system of experiment [3] is PNs, Fmr1-KO cerebellar slices. In words: Spontaneous firing of PNs, cell-attached, Fmr1-KO. The class given is cell-based, mouse. As to conditions: 10 μM, co-applied with NBQX (10 μM); Fmr1-KO compared with WT.

With `CC[C@H](C)[C@H](NC(=O)[C@@H](NC(=O)[C@H](CO)NC(=O)[C@H](C)NC(=O)[C@H](CO)NC(=O)[C@H](CCCNC(=N)N)NC(=O)[C@H](CO)NC(=O)[C@H](CCCCN)NC(=O)[C@H](CCCCN)NC(=O)[C@H](CC(C)C)NC(=O)[C@H](CC(=O)O)NC(=O)[C@@H]1CCCN1C(=O)[C@H](CO)NC(=O)[C@H](COP(=O)(O)O)NC(=O)[C@@H]1CCCN1C(=O)[C@@H](NC(=O)[C@H](CCCCN)NC(=O)[C@@H]1CCCN1)[C@@H](C)CC)[C@@H](C)O)C(=O)N[C@@H](CO)C(=O)N[C@@H](CCCCN)C(=O)N[C@@H](CO)C(=O)N[C@@H](CC(=O)O)C(=O)O` [pS440] (H-PKIP[pS]SPDLKKSRSASTISKSD-OH; N-terminus and C-terminus assumed), in experiment [1], the “change of fluorescence emission spectrum of FMRP (binding)” value was “significant spectral changes; also recorded: phosphorylation-mediated interaction”; the “co-operativity of binding to dimeric FMRP” value is “with cooperativity; also recorded: binds dimeric FMRP in a co-operative mechanism”; the “reduced χ2 of fit, model D1” value amounted to 11.6; the “χ2 of fit, model D1” value came to 92.8. Further, in experiment [1], the “reduced χ2 of fit, model D2i” value was 2.3 and the “χ2 of fit, model D2i” value turned out to be 16.4. Also, in experiment [1] (model D2c), the “enhancement of binding affinity of second ligand by binding of the first” value is ~ 80 fold; the “reduced χ2 of fit, model D2c” value is 0.16; the “χ2 of fit, model D2c” value was 0.99.

For the compound `CC[C@H](C)[C@H](NC(=O)[C@@H](NC(=O)[C@H](CO)NC(=O)[C@H](C)NC(=O)[C@H](CO)NC(=O)[C@H](CCCNC(=N)N)NC(=O)[C@H](CO)NC(=O)[C@H](CCCCN)NC(=O)[C@H](CCCCN)NC(=O)[C@H](CC(C)C)NC(=O)[C@H](CC(=O)O)NC(=O)[C@@H]1CCCN1C(=O)[C@H](COP(=O)(O)O)NC(=O)[C@H](COP(=O)(O)O)NC(=O)[C@@H]1CCCN1C(=O)[C@@H](NC(=O)[C@H](CCCCN)NC(=O)[C@@H]1CCCN1)[C@@H](C)CC)[C@@H](C)O)C(=O)N[C@@H](CO)C(=O)N[C@@H](CCCCN)C(=O)N[C@@H](CO)C(=O)N[C@@H](CC(=O)O)C(=O)O` [PhosKv436-457] (H-PKIP[pS][pS]PDLKKSRSASTISKSD-OH), the Kd in experiment [1] (model D1: dimer with one binding site, read-out: KD1, model D1) is 10.1 ± 4.4 µM; in experiment [1] (model D2i: dimer with two independent binding sites, read-out: KD1, model D2i), 1.08 ± 0.26 µM.

Take `CC[C@H](C)[C@H](NC(=O)[C@@H](NC(=O)[C@H](CO)NC(=O)[C@H](C)NC(=O)[C@H](CO)NC(=O)[C@H](CCCNC(=N)N)NC(=O)[C@H](CO)NC(=O)[C@H](CCCCN)NC(=O)[C@H](CCCCN)NC(=O)[C@H](CC(C)C)NC(=O)[C@H](CC(=O)O)NC(=O)[C@@H]1CCCN1C(=O)[C@H](COP(=O)(O)O)NC(=O)[C@H](CO)NC(=O)[C@@H]1CCCN1C(=O)[C@@H](NC(=O)[C@H](CCCCN)NC(=O)[C@@H]1CCCN1)[C@@H](C)CC)[C@@H](C)O)C(=O)N[C@@H](CO)C(=O)N[C@@H](CCCCN)C(=O)N[C@@H](CO)C(=O)N[C@@H](CC(=O)O)C(=O)O` [pS441] (H-PKIPS[pS]PDLKKSRSASTISKSD-OH; N-terminus and C-terminus assumed): in experiment [1], the “change of fluorescence emission spectrum of FMRP (binding)” value was “significant spectral changes; also recorded: phosphorylation-mediated interaction”; the “co-operativity of binding to dimeric FMRP” value is on record as “without cooperativity; also recorded: did not produce co-operative binding effects”; the “reduced χ2 of fit, model D1” value amounted to 10; the “χ2 of fit, model D1” value is recorded as 106. For the same compound, in experiment [1], the “reduced χ2 of fit, model D2i” value came out at 11 and the “χ2 of fit, model D2i” value was 107. The “binding affinity relative to the other phospho-peptides” value in experiment [1] (FMRP dimer models) is listed as “did bind with similar affinities”. Further, the “fit to D2c model” value in experiment [1] (model D2c) is “could not be fitted to the D2c model”. Further, in experiment [1] (models D1 and D2i versus KD1 of pS440 (D2c)), the “KD tighter than the KD1 of pS440” value was ~ 5 fold. The “KD weaker than the KD2 of pS440” value in experiment [1] (models D1 and D2i versus KD2 of pS440 (D2c)) is recorded as ~ 15 fold.

For the compound `CN1CCc2cc3c(cc2[C@H]1[C@@H]1OC(=O)c2c1ccc1c2OCO1)OCO3` [bicuculline], in experiment [2] (10 μM, holding −60 mV), the “elimination of IPSC events” value is reported as “eliminated all the events”. In addition, in experiment [3], the “difference in PN firing rates between WT and KO” value is “the differences in PN firing rates were abolished”.

As for `NC1=N[C@H](O)[C@H]2[C@H]3O[C@]4(O)O[C@@H]([C@@H](O)[C@@]2(N1)[C@@H]4O)[C@]3(O)CO` [TTX, tetrodotoxin], the “amplitude and frequency of mIPSCs, WT versus KO” value in experiment [2] is “the amplitude and frequency of mIPSCs became indistinguishable between the two groups”.
